Data from patent US11999727B2 (Tango Therapeutics, Inc., priority 2020, dated 2024).
Like-named read-outs stand apart in the source and are kept apart here.

Columns and labels:
PRMT5 [1] = target: T1, PRMT5 (Homo sapiens, UniProt O14744); experiment: PRMT5 biochemical IC50 assay with MTA as cofactor
T1 construct: purchased Viva (custom protein)

[2] = tested on: HAP1 MTAP-intact cell line; experiment: SDMA in-cell western assay, HAP1 MTAP-intact; assay type: cell-based; conditions: Homo sapiens
Summary of the method: (§1)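 IC50 values come from SDMA signal quantified by in-cell western in two HAP1 lines, one with native MTAP levels and one lacking MTAP.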

[3] = tested on: HAP1 MTAP-deleted cell line; experiment: Viability assay, MTAP-deleted cell line; assay type: cell-based; conditions: Homo sapiens
Text: Table 1 additionally indicates IC50 values in a viability assay for the MTAP-deleted cell line (column 10), indicating the effect of treatment with compound on cell survival.

PRMT5 [4] = target: T1, PRMT5; experiment: PRMT5 biochemical IC50 assay with no cofactor
Text: Table 1 indicates IC50 values (μM) against PRMT5 for exemplary compounds in the presence of SAM as cofactor, with no cofactor, and with MTA as cofactor, respectively (columns 4-6). […] Ki values can be calculated from the IC50 values as described in the Examples section. As detailed in the Examples section, for the assay performed in the presence of SAM, IC50=Ki×1.5 (Ki=IC50/1.5).

[5] = tested on: HAP1 MTAP-deleted cell line; experiment: SDMA in-cell western assay, HAP1 MTAP-deleted; assay type: cell-based; conditions: for IC50: Homo sapiens; for MTAP intact/deleted ratio: SDMA in-cell western
Summary of the method: as §1

PRMT5 [6] = target: T1, PRMT5; experiment: PRMT5 biochemical IC50 assay with SAM as cofactor
[7] = PRMT5, MTA as cofactor, read-out: MTA IC50
[8] = HAP1, SDMA in-cell western, HAP1 MTAP-intact, read-out: MTAP HAP1 intact IC50
[9] = HAP1, viability assay, MTAP-deleted cell line, read-out: HAP1 MTAP deleted viability
[10] = PRMT5, no cofactor, read-out: No Cofactor/rel IC50
[11] = HAP1, SDMA in-cell western, HAP1 MTAP-deleted, read-out: HAP1 MTAP deleted IC50
[12] = IC50 ratio HAP1 MTAP-intact / HAP1 MTAP-deleted
[13] = PRMT5, SAM as cofactor, read-out: SAM IC50
[14] = HAP1, viability IC50, MTAP-deleted cell line, read-out: HAP1 MTAP deleted viability
[15] = HAP1, SDMA in-cell western, HAP1 MTAP-deleted, read-out: HAP 1 MTAP deleted IC50
[16] = PRMT5, no cofactor, read-out: No Cofactor/ rel IC50
[17] = HAP1, viability, HAP1 MTAP-deleted cell line, read-out: HAP1 MTAP deleted viability
[18] = IC50 ratio HAP1 MTAP-intact vs HAP1 MTAP-deleted
[19] = HAP1, viability assay, HAP1 MTAP-deleted, read-out: HAP1 MTAP deleted viability

T1 sequence (O14744 whole entry): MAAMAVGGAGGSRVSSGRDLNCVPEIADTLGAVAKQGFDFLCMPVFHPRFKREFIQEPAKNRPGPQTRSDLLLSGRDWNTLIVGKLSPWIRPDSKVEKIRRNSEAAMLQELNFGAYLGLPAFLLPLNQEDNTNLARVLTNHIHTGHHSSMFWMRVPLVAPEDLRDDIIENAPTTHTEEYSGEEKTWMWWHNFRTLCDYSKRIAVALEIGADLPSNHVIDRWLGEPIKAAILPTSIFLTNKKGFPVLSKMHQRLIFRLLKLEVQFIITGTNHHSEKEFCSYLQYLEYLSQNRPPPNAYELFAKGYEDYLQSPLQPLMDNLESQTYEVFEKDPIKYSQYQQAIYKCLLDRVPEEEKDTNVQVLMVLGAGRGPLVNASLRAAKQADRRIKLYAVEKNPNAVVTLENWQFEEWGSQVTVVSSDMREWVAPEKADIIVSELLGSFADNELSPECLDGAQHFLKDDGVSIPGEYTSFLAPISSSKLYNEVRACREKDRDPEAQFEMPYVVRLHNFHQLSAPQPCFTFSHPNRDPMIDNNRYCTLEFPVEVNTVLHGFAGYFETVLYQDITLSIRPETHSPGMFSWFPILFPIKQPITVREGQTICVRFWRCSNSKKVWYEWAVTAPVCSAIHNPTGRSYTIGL
T1 sequence (Q9BQA1 whole entry partner): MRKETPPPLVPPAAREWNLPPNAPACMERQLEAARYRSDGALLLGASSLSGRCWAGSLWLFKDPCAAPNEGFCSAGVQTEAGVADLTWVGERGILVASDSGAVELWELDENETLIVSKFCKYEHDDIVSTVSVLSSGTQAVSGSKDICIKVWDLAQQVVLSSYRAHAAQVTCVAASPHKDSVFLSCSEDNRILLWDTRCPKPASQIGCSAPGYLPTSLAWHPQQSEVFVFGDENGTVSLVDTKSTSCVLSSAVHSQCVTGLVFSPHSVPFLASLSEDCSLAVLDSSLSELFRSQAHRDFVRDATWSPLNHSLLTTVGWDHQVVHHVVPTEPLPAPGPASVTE

| Structure (SMILES) | IC50 (PRMT5 [1]; [7]) | IC50 [2, 8] | IC50 (PRMT5 [4]; [10]) | IC50 [5, 11] | IC50 (PRMT5 [6]; [13]) | IC50 [5, 15] | IC50 (PRMT5 [4]; [16]) | IC50 [3, 9] | MTAP intact/deleted ratio [5, 12] | IC50 [3, 14] | IC50 [3, 17] | MTAP intact/deleted ratio [5, 18] | IC50 [3, 19] | IC50 (PRMT5 [1]; MTA IC50, PRMT5, MTA as cofactor) | IC50 ([2]; HAP1, read-out: MTAP HAP1 intact IC50) | IC50 ([3]; HAP1, read-out: HAP1 MTAP deleted viability) | IC50 (PRMT5 [4]; No Cofactor/rel IC50, PRMT5, no cofactor) | IC50 ([5]; HAP1, read-out: HAP1 MTAP deleted IC50) | IC50 (PRMT5 [6]; SAM IC50, PRMT5, SAM as cofactor) |
| --- | --- | --- | --- | --- | --- | --- | --- | --- | --- | --- | --- | --- | --- | --- | --- | --- | --- | --- | --- |
| C[C@H]1CC[C@@H](c2cc(F)cc(Cl)c2)N(C(=O)C(=O)Nc2cncc(C(N)=O)c2)C1 (single isomer, unassigned) [Compound 624] | > 500 nM | > 1000 nM | > 500 nM |  | > 500 nM | > 1000 nM |  |  | B (an IC50 ratio greater than or equal to 3 fold but lower than 10 fold) | > 10000 nM |  |  |  |  |  |  |  |  |  |
| Cc1cc(NC(=O)C(=O)N2C[C@@H](C)CC[C@@H]2c2ccccc2)cnc1C (single isomer, unassigned) [Compound 258] | > 500 nM | > 1000 nM | > 500 nM | > 1000 nM | > 500 nM |  |  | > 10000 nM | C (an IC50 ratio of less than 3 fold) |  |  |  |  |  |  |  |  |  |  |
| CC1(C)CCC[C@H]2CN(C(=O)C(=O)Nc3cncc(C(N)=O)c3)CC[C@@H]21 (single isomer, unassigned) [Compound 197] | 50 to 500 nM | > 1000 nM | > 500 nM | > 1000 nM | 50 to 500 nM |  |  | > 10000 nM | C (an IC50 ratio of less than 3 fold) |  |  |  |  |  |  |  |  |  |  |
| NC(=O)c1cncc(NC(=O)C(=O)N2C[C@@H](CO)CC[C@@H]2c2ccccc2)c1 (racemic) [Compound 266, 5-(2-(5-(hydroxymethyl)-2-phenylpiperidin-1-yl)-2-oxoacetamido)nicotinamide] | 50 to 500 nM | > 1000 nM | > 500 nM | 100 to 1000 nM | 50 to 500 nM |  |  | > 10000 nM | A (an IC50 ratio greater than or equal to 10 fold) |  |  |  |  |  |  |  |  |  |  |
| C[C@@H]1CN(C(=O)C(=O)Nc2cncc(C(N)=O)c2)C[C@H]2CCCC[C@@H]21 (racemic) [Compound 543, 5-[[2-[(4S,4aR,8aS)-4-Methyl-3,4,4a,5,6,7,8,8a-octahydro-1H-isoquinolin-2-yl]-2-oxo-acetyl]amino]pyridine-3-carboxamide] | 50 to 500 nM | > 1000 nM | 50 to 500 nM |  | 50 to 500 nM | 100 to 1000 nM |  |  | A (an IC50 ratio greater than or equal to 10 fold) | 1000 to 10000 nM |  |  |  |  |  |  |  |  |  |
| Cc1cc(NC(=O)C(=O)N2C[C@H](C)CC[C@H]2c2ccc3c(c2)C(=O)NC3)cnc1N (racemic) [Compound 582, N-(6-amino-5-methyl-3-pyridyl)-2-[(2R,5S)-5-methyl-2-(3-oxoisoindolin-5-yl)-1-piperidyl]-2-oxo-acetamide] | 50 to 500 nM | 100 to 1000 nM | 50 to 500 nM |  | 50 to 500 nM | < 100 nM |  |  | A (an IC50 ratio greater than or equal to 10 fold) | 1000 to 10000 nM |  |  |  |  |  |  |  |  |  |
| CCc1cc(NC(=O)C(=O)N2C[C@@H](C)CC[C@@H]2c2ccc3sc(C4(C)CCN(C)CC4)nc3c2)cnc1N [Compound 1171, N-(6-amino-5-ethylpyridin-3-yl)-2-((2R,5S)-2-(2-(1,4-dimethylpiperidin-4-yl)benzo[d]thiazol-5-yl)-5-methylpiperidin-1-yl)-2-oxoacetamide] |  |  |  |  |  |  |  |  |  |  |  | A (an IC50 ratio greater than or equal to 10 fold) |  | < 50 nM | < 100 nM | < 1000 nM | < 50 nM | < 100 nM | < 50 nM |
| Cc1cc(NC(=O)C(=O)N2C[C@@H](C)CC[C@@H]2c2cccc3[nH]ncc23)cnc1N (single isomer, unassigned) [Compound 790] | > 500 nM | > 1000 nM | > 500 nM | 100 to 1000 nM | > 500 nM |  |  |  | A (an IC50 ratio greater than or equal to 10 fold) |  |  |  | > 10000 nM |  |  |  |  |  |  |

Now from value to molecule, other results behind:

| IC50 (PRMT5 [1]; [7]) | IC50 [2, 8] | IC50 (PRMT5 [4]; [10]) | IC50 [5, 11] | IC50 (PRMT5 [6]; [13]) | IC50 [5, 15] | IC50 (PRMT5 [4]; [16]) | Structure (SMILES) | IC50 [3, 9] | MTAP intact/deleted ratio [5, 12] | IC50 [3, 14] | IC50 [3, 17] | MTAP intact/deleted ratio [5, 18] | IC50 [3, 19] | IC50 (PRMT5 [1]; MTA IC50, PRMT5, MTA as cofactor) | IC50 ([2]; HAP1, read-out: MTAP HAP1 intact IC50) | IC50 ([3]; HAP1, read-out: HAP1 MTAP deleted viability) | IC50 (PRMT5 [4]; No Cofactor/rel IC50, PRMT5, no cofactor) | IC50 ([5]; HAP1, read-out: HAP1 MTAP deleted IC50) | IC50 (PRMT5 [6]; SAM IC50, PRMT5, SAM as cofactor) |
| --- | --- | --- | --- | --- | --- | --- | --- | --- | --- | --- | --- | --- | --- | --- | --- | --- | --- | --- | --- |
| < 50 nM | > 1000 nM | 50 to 500 nM | 100 to 1000 nM | < 50 nM |  |  | Cc1cc(NC(=O)C(=O)N2C[C@H](C)CC[C@H]2c2ccccc2)cnc1C (single isomer, unassigned) [Compound 254] | 1000 to 10000 nM | A (an IC50 ratio greater than or equal to 10 fold) |  |  |  |  |  |  |  |  |  |  |
| < 50 nM | > 1000 nM | 50 to 500 nM | < 100 nM | 50 to 500 nM |  |  | C[C@H]1CC[C@H](C2CCC2)N(C(=O)C(=O)Nc2cncc(C(N)=O)c2)C1 (single isomer, unassigned) [Compound 211] | 1000 to 10000 nM | A (an IC50 ratio greater than or equal to 10 fold) |  |  |  |  |  |  |  |  |  |  |
| 50 to 500 nM | > 1000 nM |  |  | > 500 nM | > 1000 nM | > 500 nM | Cc1cccc([C@@H]2CCCCN2C(=O)C(=O)Nc2cnc(N)c(C)c2)c1 (single isomer, unassigned) [Compound 57] | > 10000 nM | C (an IC50 ratio of less than 3 fold) |  |  |  |  |  |  |  |  |  |  |
| < 50 nM | 100 to 1000 nM |  |  | 50 to 500 nM | < 100 nM | < 50 nM | CCc1cc(NC(=O)C(=O)N2C[C@@H](C)CC[C@@H]2c2ccc3sc(CN(C)C(C)C)nc3c2)cnc1N [Compound 1303, N-(6-amino-5-ethylpyridin-3-yl)-2-((2R,5S)-2-(2-((isopropyl(methyl)amino)methyl)benzo[d]thiazol-5-yl)-5-methylpiperidin-1-yl)-2-oxoacetamide] |  | A (an IC50 ratio greater than or equal to 10 fold) |  | < 1000 nM |  |  |  |  |  |  |  |  |
| < 50 nM | < 100 nM | < 50 nM | < 100 nM | < 50 nM |  |  | CCc1cc(NC(=O)C(=O)N2C[C@@H](C)CC[C@@H]2c2ccc3sc([C@H]4C[C@H](N(C)C)C4)nc3c2)cnc1N [Compound 1101, N-(6-amino-5-ethylpyridin-3-yl)-2-((2R,5S)-2-(2-(3-(dimethylamino)cyclobutyl)benzo[d]thiazol-5-yl)-5-methylpiperidin-1-yl)-2-oxoacetamide] | < 1000 nM |  |  |  | A (an IC50 ratio greater than or equal to 10 fold) |  |  |  |  |  |  |  |
| < 50 nM | > 1000 nM | 50 to 500 nM | < 100 nM | 50 to 500 nM |  |  | Cc1cc(NC(=O)C(=O)N2C[C@@H](C)[C@H](C)C[C@H]2c2ccccc2)cnc1N (single isomer, unassigned) [Compound 313] | 1000 to 10000 nM | A (an IC50 ratio greater than or equal to 10 fold) |  |  |  |  |  |  |  |  |  |  |
| < 50 nM | 100 to 1000 nM |  |  | < 50 nM | < 100 nM | < 50 nM | CCc1cc(NC(=O)C(=O)N2C[C@@H](C)CC[C@@H]2c2cccc(N3CCN(C)CC3)c2)cnc1N [Compound 1367, N-(6-amino-5-ethylpyridin-3-yl)-2-((2R,5S)-5-methyl-2-(3-(4-methylpiperazin-1-yl)phenyl)piperidin-1-yl)-2-oxoacetamide] |  | A (an IC50 ratio greater than or equal to 10 fold) |  | < 1000 nM |  |  |  |  |  |  |  |  |
| < 50 nM | > 1000 nM | 50 to 500 nM | 100 to 1000 nM | 50 to 500 nM |  |  | COc1ncc(NC(=O)C(=O)N2C[C@@H](C)CC[C@@H]2c2ccc(-c3nccs3)cc2)cc1C(N)=O (single isomer, unassigned) [Compound 811] |  | A (an IC50 ratio greater than or equal to 10 fold) |  |  |  | 1000 to 10000 nM |  |  |  |  |  |  |
| < 50 nM | > 1000 nM | 50 to 500 nM | 100 to 1000 nM | 50 to 500 nM |  |  | CCOc1ncc(NC(=O)C(=O)N2C[C@@H](C)CC[C@@H]2c2ccccc2)cc1C(N)=O (single isomer, unassigned) [Compound 764] |  | A (an IC50 ratio greater than or equal to 10 fold) |  |  |  | 1000 to 10000 nM |  |  |  |  |  |  |
| < 50 nM | 100 to 1000 nM | < 50 nM | < 100 nM | 50 to 500 nM |  |  | C[C@H]1CC[C@H](c2ccc(O)c(F)c2)N(C(=O)C(=O)Nc2cncc(C(N)=O)c2)C1 (single isomer, unassigned) [Compound 354] | < 1000 nM | A (an IC50 ratio greater than or equal to 10 fold) |  |  |  |  |  |  |  |  |  |  |
